Results reported in patent US11693005B2, “Methods for identifying treatments that reduce the actions of substances of abuse and addiction” (Florida Atlantic University Board of Trustees, priority 2018, dated 2023).
Entries after “also recorded” stand apart in the source; their conditions may differ.

What was measured:
mouse MBLAC1 = target: T1, mouse MBLAC1 (Mus musculus, UniProt Q8BWY4); test: Backscattering interferometry (BSI) binding of unlabeled Cef to lysates of TET-induced T-REx cells expressing mouse MBLAC1; details: 5 μM and 50 μM
T1 construct: mouse and human Mblac1 cDNAs were subcloned into pcDNA5/FRT/TO vector; expressed in transfected cells; cell lysate
T1 sequence (Q8BWY4 1-260): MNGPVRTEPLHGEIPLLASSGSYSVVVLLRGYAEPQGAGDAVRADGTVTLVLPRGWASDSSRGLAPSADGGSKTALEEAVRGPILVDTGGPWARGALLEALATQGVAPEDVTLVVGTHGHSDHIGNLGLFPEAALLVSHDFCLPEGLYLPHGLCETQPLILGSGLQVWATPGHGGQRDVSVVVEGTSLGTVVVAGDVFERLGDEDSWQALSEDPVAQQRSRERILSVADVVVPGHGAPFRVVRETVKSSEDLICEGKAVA
Description: (§1) HEK Flp-In T-REx-293 cells (T-REx) expressing mouse or human MBLAC1 proteins were generated per manufacturer's (ThermoFisher, Waltham, Mass., USA) instructions. Briefly, mouse and human Mblac1 cDNAs were subcloned into pcDNA5/FRT/TO vector and then co-transfected with pOG44 plasmid (encoding Flp recombinase) by lipid based transfection into Flp-In T-REx-293 cells using TransIT-LT1 (Mirus, Madison, Wis.). Stable integrants were isolated following selection with 100 μg/ml hygromycin. Expression of MBLAC1 protein was induced by addition of 1 μg/mL tetracycline (TET) to the media. […]
(§2) To assess the binding of unlabeled Cef with MBLAC1 in cell and tissue lysates, BSI was utilized. […] RI changes are quantified by comparing fringe shifts between test and reference samples.
(§3) Lysates for BSI contained Cef at concentrations of 0 μM, 5 μM, and 50 μM and concentrations of either 300 μg/mL (mouse cell lysates) or 100 μg/mL (human cell lysates and mouse brain lysates) protein. […] To obtain BSI signals, the sample with 0 μM Cef was injected into the channel in a stop-flow manner using a vacuum and allowed to reach temperature and pressure equilibrium (˜10 sec) at which point the phase value (BSI signal) was measured for 20 sec. Specific BSI signal was determined by subtracting Cef only signal from Cef-lysate signals. […]

human MBLAC1 = target: T2, human MBLAC1 (Homo sapiens, UniProt A4D2B0); test: Backscattering interferometry (BSI) binding to lysates of TET-induced T-REx cells expressing human MBLAC1; details: 5 μM and 50 μM
T2 construct: mouse and human Mblac1 cDNAs were subcloned into pcDNA5/FRT/TO vector; expressed in transfected cells; cell lysate
T2 sequence (A4D2B0 1-266): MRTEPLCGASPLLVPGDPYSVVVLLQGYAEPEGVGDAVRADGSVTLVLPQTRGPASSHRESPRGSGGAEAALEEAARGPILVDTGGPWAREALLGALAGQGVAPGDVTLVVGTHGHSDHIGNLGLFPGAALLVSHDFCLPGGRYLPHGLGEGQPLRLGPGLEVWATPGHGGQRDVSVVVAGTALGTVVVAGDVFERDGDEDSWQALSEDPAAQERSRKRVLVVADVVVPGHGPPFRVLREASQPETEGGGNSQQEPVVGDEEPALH
Description: as §1, §2, §3

MBLAC1 [1] = target: T3, MBLAC1 (Mus musculus, UniProt Q8BWY4); test: BSI binding to mouse frontal cortex lysates, with and without MBLAC1 immunodepletion
T3 construct: from tissue; host or cells: mouse (C57BL/6J) frontal cortex, 100,000 x g supernatant
T3 sequence (Q8BWY4 1-260): T1 sequence (Q8BWY4 1-260)
Description: Wild type C57BL/6J mice (Jackson Labs, Bar Harbor, Me.) were rapidly decapitated and frontal cortex was dissected. Tissue was homogenized in ice cold 20 mM HEPES buffer (pH 7.4) using a Dounce homogenizer (Wheaton, Millville, N.J.), and then sonicated (F60 sonic dismembrator, Fisher Scientific, Waltham, Mass.) using 5, 1 sec pulses. Lysates were then centrifuged at 100,000×g for 30 min. Supernatants were collected, diluted with 2× lysis buffer (40 mM HEPES, 220 mM KCl, 20 mM NaCl, 4 mM MgCl, 10 mM KH2PO4, 500 μM ZnSO4) and protein concentration determined (BCA Protein Assay, ThermoFisher, Waltham, Mass.). […]
as §2, §3

MBLAC1 [2] = test: MBLAC1 pulldown with Cef-conjugated CN-Br Sepharose beads, competition by free Cef; format: binding
[3] = system: MBLAC1 WT and MBLAC1 KO mice; test: Effect of repeated Cef on cocaine-induced locomotion, open field; format: in vivo, mouse; details: Cef 200 mg/kg IP once daily 10 days, cocaine 10 mg/kg 24 h later
Description: Animals: All mice were used in accordance with protocols approved by the Florida Atlantic University Institutional Animal Care and Use Committee. Mice were group-housed on a 12 h/12 h light/dark cycle and given ad libitum access to food and water. Breeding was accomplished with mating of heterozygous males with heterozygous females. Male and female mice 11-13 weeks old at the start of the experiment were used in testing the effects of repeated ceftriaxone on response to cocaine in the open field assay. Data from males and females were combined.
Repeated Cef treatment/acute cocaine administration: MBLAC1 wild-type (WT, MBLAC1^+/+) and knockout mice (MBLAC1^−/−) were used in this experiment. Mice were injected IP once daily for 10 days with 200 mg/kg ceftriaxone (CEF) or saline. Twenty-four hours following the last CEF injection, mice were injected with 10 mg/kg cocaine or saline followed immediately by testing in open field activity chambers (Med Associates, Fairfax, Vt.) for 60 minutes. Locomotor activity was evaluated by photocells in the X, Y and Z dimensions. Horizontal beam breaks, vertical beam breaks, and repetitive movements were recorded and measures, including distance traveled, vertical rearing and stereotypic counts, were calculated. Data were analyzed in 5 min time bins within session, and for the first 30 min following cocaine injection. Data were analyzed by two-way ANOVA repeated measures, with time bin as the repeated measure, or by two-way ANOVA for 30 min cumulated data. At the end of behavior, mice were euthanized by CO2.
The methods were performed essentially as described in Tallarida et al. Neurosci Lett vol. 556, p. 155-159, 2013.

SMILES: CC(=O)OCC1=C(C(=O)O)N2C(=O)[C@@H](NC(=O)CCC[C@@H](N)C(=O)O)[C@H]2SC1 [CephC, cephalosporin C]
- BSI binding signal (mouse MBLAC1): non-significant reduction in BSI signal; also recorded: a significant CephC BSI signal (FIG. 3D) was not seen

SMILES: CO/N=C(\C(=O)N[C@@H]1C(=O)N2C(C(=O)O)=C(CSc3nc(=O)c(=O)[nH]n3C)CS[C@H]12)c1csc(N)n1 [Cef, ceftriaxone]
- BSI binding signal (human MBLAC1): concentration-dependent, heat-sensitive BSI binding signals; also recorded: significant, dose-dependent BSI signals
- BSI binding signal (MBLAC1 [1]; mouse frontal cortex lysate immunodepleted of MBLAC1 with antibody #80): eliminated Cef binding activity; also recorded: the Cef binding signal was abolished
- BSI binding signal (MBLAC1 [1]; mouse frontal cortex lysate, 5 μM and 50 μM): shows binding signal with Cef
- Mean reduction in MBLAC1 binding to immobilized Cef (MBLAC1 [2]; 50 μM free Cef preincubated with lysate, n=6): 52.4±9.3%
- MBLAC1 capture by Cef-conjugated beads (MBLAC1 [2]; lysates preincubated with Cef 50 μM): significantly diminished MBLAC1 capture
- Effect on cocaine-induced locomotion (ambulatory distance, first 30 min) ([3]; MBLAC1 KO mice): no ability to attenuate cocaine actions
- Effect on cocaine-induced locomotion (ambulatory distance, first 30 min) ([3]; MBLAC1 KO mice, listed as CEF): had no effect on the response to cocaine
- Effect on cocaine-induced locomotion (ambulatory distance, first 30 min) ([3]; MBLAC1 WT mice): the locomotor activating effects of cocaine were lost
- Effect on cocaine-induced locomotion (ambulatory distance, first 30 min) ([3]; MBLAC1 WT mice, listed as CEF): completely blocked the effects of cocaine
- BSI binding signal (mouse MBLAC1): concentration-dependent, heat-sensitive BSI binding signals; also recorded: significant, dose-dependent BSI signals; also recorded: Significant dose-dependent BSI signals
